Laboratory results from patent EP1144369B1 (Wyeth Holdings Corporation, priority 1999, dated 2000).

What was measured:
[1] = system: THP-1 cells; test: THP-1 soluble protein assay (LPS-stimulated human monocytic THP-1 cells); format: cell-based; conditions: Homo sapiens, LPS-stimulated THP-1 cells, read-out: % Inhib. @ 3µM THP
Source text: Mitogenic stimulation of THP-1 cells cause differentiation into macrophage like cells with concomitant secretion of tumor necrosis factor (TNF-a) and TNF receptor (TNF-R p75/80 and TNF-R p55/60) and Interleukin-8 (IL-8), among other proteins. In addition, non-stimulated THP-1 cells shed both the p75/80 and the p55/60 receptors over time. The release of membrane bound TNF-α and possibly TNF-R p75/80 and TNF-R p55/60, but not IL-8, is mediated by an enzyme called TNF-a converting enzyme or TACE.
THP-1 cells (from ATCC) are a human monocytic cell line which were obtained from the peripheral blood of a person with acute monocytic leukemia. They can be grown in culture and differentiated into macrophage like cells by stimulation with mitogens.
Each vial of cells are cultured for about two weeks prior to being used for an assay and then are used for only 4 to 6 weeks to screen compounds.
Cell exposure to DMSO was limited to 0.1 % final concentration. […] Compounds can be evaluated for their effect on basal (non-stimulated) shedding of the receptors by replacing the LPS with […] of THP-1 media. Plates are placed into an incubator set at 5% CO2 and at 37°C. After 4 hours of incubation, […] of tissue culture supernatant (TCS) is removed for use in an TNF-a ELISA. Following 24 hours of incubation, […] of TCS is removed and used for analysis in TNF-R p75/80, TNF-R p55/60 and IL-8 ELISAs.
In addition, at the 24 hours timepoint, and the cells for each treatment group are collected by resuspension in 500 µl/well of THP-1 media and transferred into a FACS tube. […] The samples are run on a Becton Dickinson FaxCaliber FLOW cytometry machine and the amount of dye taken up by each cell is measured in the high red wavelength (FL3). Only cells with compromised membranes (dead or dying) can take up PI. The percent of live cells is calculated by the number of cells not stained with PI, divided by the total number of cells in the sample. The viability values calculated for the drug treated groups were compared to the viability value calculated for the vehicle treated mitogen stimulated group ("vehicle positive control") to determine the "percent change from control". This "percent change from control" value is an indicator of drug toxicity.
The quantity of soluble TNF-a, TNF-R p75/80 and TNF-R p55/60 and IL-8 in the TCS of the THP-1 cell cultures are obtained with commercially available ELISAs from R&D Systems, by extrapolation from a standard curve generated with kit standards. The number of cells that either take up or exclude PI are measured by the FLOW cytometry machine and visualized by histograms using commercially available Cytologic software for each treatment group including all controls.
Biological variability in the magnitude of the response of THP-1 cell cultures requires that experiments be compared on the basis of percent change from "vehicle positive control" for each drug concentration. Percent change in each soluble protein evaluated from the "vehicle positive control" was calculated for each compound concentration with the following formula: % Change =(pg/ml(compound) - pg/ml (veh pos control))/(pg/ml (veh pos control) - pg/ml(veh neg control))x 100 [formula]
For the soluble protein (TNF-a, p75/80, p55/60, IL-8) studies under stimulated conditions, the mean pg/ml of duplicate wells were determined and the results expressed as percent change from "vehicle positive control". For the soluble protein (p75/80 and p55/60 receptors) studies under non-stimulated conditions, the mean pg/ml of duplicate wells were determined and the results expressed as percent change from "vehicle positive control" utilizing the following formula: % Change =(pg/ml (compound neg control) - pg/ml (veh neg control)/(pg/ml (veh neg control))X 100 [formula]
IC50 values for each compound are calculated by non-linear regression analysis using customized software utilizing the JUMP statistical package.

[2] = molecular target: MMP-9 (Homo sapiens, UniProt P14780); test: MMP-9 inhibition (thiopeptide or fluorescent peptide substrate); format: biochemical
Description: (§1) The enzyme activity is measured by the rate of the color increase. The thiopeptide substrate is made up fresh as a 20 mM stock in 100% DMSO and the DTNB is dissolved in 100% DMSO as a 100 mM stock and stored in the dark at room temperature. Both the substrate and DTNB are diluted together to 1 mM with substrate buffer (50 mM HEPES pH 7.5, 5 mM CaCl2) before use. The stock of enzyme is diluted with buffer (50 mM HEPES, pH 7.5, 5 mM CaCl2, 0.02% Brij) to the desired final concentration.
(§2) Alternatively, a fluorescent peptide substrate is used. In this test procedure, the peptide substrate contains a fluorescent group and a quenching group. Upon cleavage of the substrate by an MMP, the fluorescence that is generated is quantitated on the fluorescence plate reader. The assay is run in HCBC assay buffer (50mM HEPES, pH 7.0, 5 mM Ca^+2, 0.02% Brij, 0.5% Cysteine), with human recombinant MMP-1, MMP-9, or MMP-13. The substrate is dissolved in methanol and stored frozen in 1 mM aliquots. For the assay, substrate and enzymes are diluted in HCBC buffer to the desired concentrations. Compounds are added to the 96 well plate containing enzyme and the reaction is started by the addition of substrate.
(§3) For either the thiopeptide or fluorescent peptide test procedures, the slope of the line is calculated and represents the reaction rate. The linearity of the reaction rate is confirmed (r^2 >0.85). The mean (x±sem) of the control rate is calculated and compared for statistical significance (p<0.05) with drug-treated rates using Dunnett's multiple comparison test.

[3] = molecular target: T1, MMP-1 (Homo sapiens, UniProt P03956); test: MMP-1 inhibition (thiopeptide or fluorescent peptide substrate); format: biochemical; conditions: plain number = IC50
T1 sequence (P03956 100-469): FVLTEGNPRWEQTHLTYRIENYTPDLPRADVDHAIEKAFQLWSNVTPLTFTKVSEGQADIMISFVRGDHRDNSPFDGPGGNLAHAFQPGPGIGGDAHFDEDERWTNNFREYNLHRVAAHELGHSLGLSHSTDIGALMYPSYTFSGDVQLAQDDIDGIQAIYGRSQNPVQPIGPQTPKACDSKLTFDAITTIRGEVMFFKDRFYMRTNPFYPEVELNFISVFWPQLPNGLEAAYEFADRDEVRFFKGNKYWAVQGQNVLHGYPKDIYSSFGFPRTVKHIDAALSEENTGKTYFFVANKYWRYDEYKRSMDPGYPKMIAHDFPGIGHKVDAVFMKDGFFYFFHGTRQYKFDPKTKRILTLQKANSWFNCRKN
Description: as §1, §2, §3

[4] = molecular target: MMP-13 (Homo sapiens, UniProt P45452); test: MMP-13 inhibition (thiopeptide or fluorescent peptide substrate); format: biochemical
Description: as §1, §2, §3

[5] = molecular target: TNF-α converting enzyme (TACE) (Homo sapiens, UniProt P78536); test: TACE inhibition (fluorescent peptidyl substrate); format: biochemical; conditions: read-out: IC50 (nM) or % Inhibition (µM) TACE
Description: Using 96-well black microtiter plates, each well receives a solution composed of 10 µL TACE (final concentration 1µg/mL), 70µL Tris buffer, pH 7.4 containing 10% glycerol (final concentration 10 mM), and 10 µL of test compound solution in DMSO (final concentration 1µM, DMSO concentration <1%) and incubated for 10 minutes at room temperature. The reaction is initiated by addition of a fluorescent peptidyl substrate (final concentration 100 µM) to each well and then shaking on a shaker for 5 sec.
The reaction is read (excitation 340 nm, emission 420 nm) for 10 min. and the increase in fluorescence over time is plotted as a linear line. The slope of the line is calculated and represents the reaction rate.
The linearity of the reaction rate is confirmed (r^2 >0.85). The mean (x±sem) of the control rate is calculated and compared for statistical significance (p<0.05) with drug-treated rates using Dunnett's multiple comparison test.

Sequence of TNF-α converting enzyme (TACE) (P78536 215-824, species assumed): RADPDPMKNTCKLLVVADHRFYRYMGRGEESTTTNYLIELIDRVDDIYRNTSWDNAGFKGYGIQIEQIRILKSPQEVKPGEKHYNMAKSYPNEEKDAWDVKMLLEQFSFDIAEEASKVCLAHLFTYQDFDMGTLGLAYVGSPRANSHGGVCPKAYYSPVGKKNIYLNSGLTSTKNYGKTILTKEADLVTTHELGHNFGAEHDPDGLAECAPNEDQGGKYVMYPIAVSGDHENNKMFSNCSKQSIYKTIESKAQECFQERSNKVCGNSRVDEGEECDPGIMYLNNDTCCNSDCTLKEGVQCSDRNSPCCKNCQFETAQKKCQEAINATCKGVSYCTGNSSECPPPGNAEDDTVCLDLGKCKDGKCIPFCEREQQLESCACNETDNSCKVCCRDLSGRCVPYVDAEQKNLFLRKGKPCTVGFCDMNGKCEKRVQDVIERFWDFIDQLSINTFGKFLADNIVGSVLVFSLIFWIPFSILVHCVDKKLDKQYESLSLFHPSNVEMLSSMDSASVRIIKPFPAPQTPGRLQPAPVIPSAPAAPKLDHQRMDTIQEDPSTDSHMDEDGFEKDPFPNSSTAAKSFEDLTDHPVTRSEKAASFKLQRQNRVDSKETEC
Sequence of MMP-9 (P14780 94-707): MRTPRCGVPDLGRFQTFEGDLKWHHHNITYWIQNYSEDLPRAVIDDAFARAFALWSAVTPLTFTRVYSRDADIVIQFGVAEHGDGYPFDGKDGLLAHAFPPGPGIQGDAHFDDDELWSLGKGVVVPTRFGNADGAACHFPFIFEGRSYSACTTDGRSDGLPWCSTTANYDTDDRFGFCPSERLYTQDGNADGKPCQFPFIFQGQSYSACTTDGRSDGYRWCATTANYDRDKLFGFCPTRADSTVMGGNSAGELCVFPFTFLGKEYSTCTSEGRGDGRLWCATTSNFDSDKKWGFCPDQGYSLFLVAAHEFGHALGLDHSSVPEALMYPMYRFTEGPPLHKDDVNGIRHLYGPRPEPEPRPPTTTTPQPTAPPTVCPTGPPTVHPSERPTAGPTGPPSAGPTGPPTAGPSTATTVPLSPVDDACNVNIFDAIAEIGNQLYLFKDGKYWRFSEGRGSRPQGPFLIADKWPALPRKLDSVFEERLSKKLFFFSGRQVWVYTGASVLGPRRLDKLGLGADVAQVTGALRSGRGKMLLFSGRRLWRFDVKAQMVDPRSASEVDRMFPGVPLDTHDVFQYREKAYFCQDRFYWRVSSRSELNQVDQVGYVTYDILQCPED

CCCC#CCOc1ccc(S(=O)(=O)N(C)c2c(C)cc(Br)cc2C(=O)NO)cc1 [Example 57, 5-Bromo-2-[(4-hex-2-ynyloxy-benzenesulfonyl)-methyl-amino]-N-hydroxy-3-methyl-benzamide]
inhibition at 3 µM [1]: 11%
IC50 [2]: 232 nM
IC50 [3]: 2360 nM
IC50 [4]: 358 nM
IC50 [5]: 47 nM
